Test results from ChEMBL document CHEMBL1133323, “Antitumor agents. Part 202: novel 2'-amino chalcones: design, synthesis and biological evaluation” (2000).
Values after ≈ are worked out from the molar mass of the structure shown.

What was measured:
HOS = assay: In vitro cytotoxicity against human osteosarcoma (Hos) cell line; assay type: functional; details: for EC50: read-out: ED50 (the source's name)
U-87 MG [1] = assay: (§1) In vitro cytotoxicity against human glioblastoma (U-87-MG) cell line; assay type: functional, U-87MG ATCC; details: read-out: ED50 (the source's name)
SK-MEL-2 = assay: In vitro cytotoxicity against human melanoma (SKMEL-2) cell line; assay type: functional; details: for EC50: read-out: ED50 (the source's name)
MCF7 = assay: In vitro cytotoxicity against human breast cancer (MCF-7) cell line; assay type: functional; details: read-out: ED50 (the source's name)
KB [2] = assay: In vitro cytotoxicity against human epidermoid carcinoma of the nasopharynx (KB) cell line; assay type: functional; details: read-out: ED50 (the source's name)
U-87 MG [3] = assay: as §1; assay type: functional, U-87MG ATCC; parameters: concentration or dose not given beside the values
1A9 = assay: In vitro cytotoxicity against human ovarian cancer (IA9) cell line; assay type: functional; details: read-out: ED50 (the source's name)
A549 = assay: In vitro cytotoxicity against human lung carcinoma (A-549) cell line; assay type: functional; details: read-out: ED50 (the source's name)
HCT-8 = assay: In vitro cytotoxicity against human ileocecal carcinoma (HCT-8) cell line; assay type: functional; details: for EC50: read-out: ED50 (the source's name)
KB [4] = assay: In vitro cytotoxicity against human P-glycoprotein-expressing epidermoid carcinoma of the nasopharynx (KB-VIN) cell line; assay type: functional; details: read-out: ED50 (the source's name)

| SMILES | EC50 (HOS) | EC50 (U-87 MG [1]) | EC50 (SK-MEL-2) | EC50 (MCF7) | EC50 (KB [2]) | Inhibition (U-87 MG [3]) | EC50 (1A9) | EC50 (A549) | EC50 (HCT-8) | EC50 (KB [4]) | Inhibition (HOS) | Inhibition (SK-MEL-2) | Inhibition (HCT-8) |
| --- | --- | --- | --- | --- | --- | --- | --- | --- | --- | --- | --- | --- | --- |
| Cc1ccccc1/C=C/C(=O)c1ccccc1N | 4 µg/mL (≈ 16.9 µM) | > 10 µg/mL | 5.1 µg/mL (≈ 21.5 µM) | 6.1 µg/mL (≈ 25.7 µM) | 1.35 µg/mL (≈ 5.69 µM) | 34% | 1.2 µg/mL (≈ 5.06 µM) | 3.5 µg/mL (≈ 14.7 µM) | 9.8 µg/mL (≈ 41.3 µM) | 1.25 µg/mL (≈ 5.27 µM) |  |  |  |
| Nc1cc2c(cc1C(=O)/C=C/c1ccccc1F)OCO2 | 4 µg/mL (≈ 14 µM) | 7 µg/mL (≈ 24.5 µM) | 6.5 µg/mL (≈ 22.8 µM) | 2.6 µg/mL (≈ 9.11 µM) | 1.5 µg/mL (≈ 5.26 µM) |  | 1.5 µg/mL (≈ 5.26 µM) | 2 µg/mL (≈ 7.01 µM) | 3 µg/mL (≈ 10.5 µM) | 0.95 µg/mL (≈ 3.33 µM) |  |  |  |
| COc1cccc(/C=C/C(=O)c2ccccc2N)c1 | 2 µg/mL (≈ 7.9 µM) | 5.1 µg/mL (≈ 20.1 µM) | 3.5 µg/mL (≈ 13.8 µM) | 1.3 µg/mL (≈ 5.13 µM) | 0.65 µg/mL (≈ 2.57 µM) |  | 0.8 µg/mL (≈ 3.16 µM) | 1.2 µg/mL (≈ 4.74 µM) | 4.5 µg/mL (≈ 17.8 µM) | 0.3 µg/mL (≈ 1.18 µM) |  |  |  |
| Cc1ccccc1C1OC1C(=O)c1ccccc1N (stereo unspecified) | > 20 µg/mL | > 20 µg/mL | > 20 µg/mL | 19.5 µg/mL (≈ 77 µM) | 15.5 µg/mL (≈ 61.2 µM) | 28% | 12.5 µg/mL (≈ 49.3 µM) | 17 µg/mL (≈ 67.1 µM) | > 20 µg/mL | 11.5 µg/mL (≈ 45.4 µM) | 47% | 45% | 41% |
| COc1cccc(/C=C/C(=O)c2ccc3c(c2)OCO3)c1 | > 20 µg/mL | > 20 µg/mL | > 20 µg/mL | 19 µg/mL (≈ 67.3 µM) | 18.7 µg/mL (≈ 66.2 µM) | 20% | 15 µg/mL (≈ 53.1 µM) | 18.5 µg/mL (≈ 65.5 µM) | > 20 µg/mL | 14 µg/mL (≈ 49.6 µM) | 42% | 42% | 28% |
| COc1cccc(/C=C/C(=O)c2cc3c(cc2N)OCO3)c1 | 2.4 µg/mL (≈ 8.07 µM) | 8 µg/mL (≈ 26.9 µM) | 2.3 µg/mL (≈ 7.74 µM) | 0.48 µg/mL (≈ 1.61 µM) | 0.52 µg/mL (≈ 1.75 µM) |  | 0.35 µg/mL (≈ 1.18 µM) | 0.45 µg/mL (≈ 1.51 µM) | 1.5 µg/mL (≈ 5.05 µM) | 0.3 µg/mL (≈ 1.01 µM) |  |  |  |
| Nc1cc2c(cc1C(=O)/C=C/c1ccc(F)cc1)OCO2 | 6 µg/mL (≈ 21 µM) | > 10 µg/mL | 9 µg/mL (≈ 31.5 µM) | 5.1 µg/mL (≈ 17.9 µM) | 3.1 µg/mL (≈ 10.9 µM) | 49% | 3.5 µg/mL (≈ 12.3 µM) | 4.2 µg/mL (≈ 14.7 µM) | 6.5 µg/mL (≈ 22.8 µM) | 2.2 µg/mL (≈ 7.71 µM) |  |  |  |
| COc1cccc(C2OC2C(=O)c2cc3c(cc2N)OCO3)c1 (stereo unspecified) | 4.5 µg/mL (≈ 14.4 µM) | 5 µg/mL (≈ 16 µM) | 9.8 µg/mL (≈ 31.3 µM) | 1.1 µg/mL (≈ 3.51 µM) | 2 µg/mL (≈ 6.38 µM) |  | 1.2 µg/mL (≈ 3.83 µM) | 2 µg/mL (≈ 6.38 µM) | 2.1 µg/mL (≈ 6.7 µM) | 1.3 µg/mL (≈ 4.15 µM) |  |  |  |
| Nc1cc2c(cc1C(=O)C1OC1c1ccccc1F)OCO2 (stereo unspecified) | 4 µg/mL (≈ 13.3 µM) | 9 µg/mL (≈ 29.9 µM) | 9.5 µg/mL (≈ 31.5 µM) | 2.3 µg/mL (≈ 7.63 µM) | 15.4 µg/mL (≈ 51.1 µM) |  | 1.85 µg/mL (≈ 6.14 µM) | 3.5 µg/mL (≈ 11.6 µM) | 4.8 µg/mL (≈ 15.9 µM) | 2.3 µg/mL (≈ 7.63 µM) |  |  |  |
